Assay results: the NIST ThermoML archive (doi:10.1021/acs.jced.7b00221)

Assay: xn = mol fraction of the nth substance listed
Conditions: 100 kPa, Liquid; for viscosity: Cone and plate viscometry; for mass density: Vibrating tube method

CCCCCCn1cc[n+](C)c1.O=[N+]([O-])c1cn[n-]c1 [1-hexyl-3-methylimidazolium 4-nitropyrazolide] + CCCCCCCCCCCCCC[P+](CCCCCC)(CCCCCC)CCCCCC.O=S(=O)([N-]S(=O)(=O)C(F)(F)F)C(F)(F)F
Conditions	mass density, x1 = 0.25 [kg/m3]	mass density, x1 = 0.5 [kg/m3]	mass density, x1 = 0.749 [kg/m3]	viscosity, x1 = 0.101 [mPa·s]	viscosity, x1 = 0.299 [mPa·s]	viscosity, x1 = 0.5 [mPa·s]	viscosity, x1 = 0.7 [mPa·s]	viscosity, x1 = 0.9 [mPa·s]
278.15 K	–	–	–	1201	1360	1582	2039	2649
283.15 K	1081.8	1090.7	1105.6	816	914	1045	1290	1540
288.15 K	1078.2	1087.1	1102	570	629	707	840	935
293.15 K	1074.6	1083.6	1098.5	410	445	492	566	597
295.15 K	1073.1	1082.2	1097.2	–	–	–	–	–
298.15 K	1071	1080.1	1095.2	302	323	352	395	400
303.15 K	1067.4	1076.6	1091.7	228	241	259	285	278
308.15 K	1063.8	1073.1	1088.3	175	184	195	211	200
313.15 K	1060.3	1069.6	1084.9	138	142	150	160	149
318.15 K	1056.8	1066.2	1081.6	110	113	118	124	113
323.15 K	1053.4	1062.8	1078.3	90	91	94	99	89
328.15 K	1049.9	1059.4	1075	–	–	–	–	–
333.15 K	1046.4	1056	1071.7	–	–	–	–	–
338.15 K	1042.9	1052.6	1068.3	–	–	–	–	–
343.15 K	1039.4	1049.2	1065	–	–	–	–	–
348.15 K	1035.9	1045.8	1061.7	–	–	–	–	–
353.15 K	1032.5	1042.4	1058.5	–	–	–	–	–

CCCCCCCC[P+](CC)(CC)CC.O=[N+]([O-])c1cn[n-]c1 [triethyloctylphosphonium 4-nitropyrazolide] + CCCCCC[n+]1ccn(C)c1.O=S(=O)([N-]S(=O)(=O)C(F)(F)F)C(F)(F)F
Conditions	mass density [kg/m3]	viscosity [mPa·s]
278.15 K, x1 = 0.126	–	267
278.15 K, x1 = 0.25	–	358
278.15 K, x1 = 0.499	–	680
278.15 K, x1 = 0.75	–	1046
278.15 K, x1 = 0.898	–	1242
283.15 K, x1 = 0.126	1340	191
283.15 K, x1 = 0.25	1296.5	251
283.15 K, x1 = 0.499	1209.6	456
283.15 K, x1 = 0.75	1124.3	682
283.15 K, x1 = 0.898	1074.4	804
283.15 K, x1 = 1	1040.7	–
288.15 K, x1 = 0.126	1335.5	140
288.15 K, x1 = 0.25	1292.3	180
288.15 K, x1 = 0.499	1205.8	314
288.15 K, x1 = 0.75	1120.9	457
288.15 K, x1 = 0.898	1071.2	535
288.15 K, x1 = 1	1037.7	–
293.15 K, x1 = 0.126	1331.1	106
293.15 K, x1 = 0.25	1288.2	133
293.15 K, x1 = 0.499	1201.9	223
293.15 K, x1 = 0.75	1117.5	317
293.15 K, x1 = 0.898	1068	369
293.15 K, x1 = 1	1034.6	–
295.15 K, x1 = 0.126	1329.4	–
295.15 K, x1 = 0.25	1286.5	–
295.15 K, x1 = 0.499	1200.4	–
295.15 K, x1 = 0.75	1116.1	–
295.15 K, x1 = 0.898	1066.8	–
295.15 K, x1 = 1	1033.4	–
298.15 K, x1 = 0.126	1326.7	82
298.15 K, x1 = 0.25	1284.1	102
298.15 K, x1 = 0.499	1198.2	164
298.15 K, x1 = 0.75	1114.1	227
298.15 K, x1 = 0.898	1064.8	263
298.15 K, x1 = 1	1031.5	–
303.15 K, x1 = 0.126	1322.4	66
303.15 K, x1 = 0.25	1280	79
303.15 K, x1 = 0.499	1194.5	124
303.15 K, x1 = 0.75	1110.7	168
303.15 K, x1 = 0.898	1061.7	192
303.15 K, x1 = 1	1028.5	–
308.15 K, x1 = 0.126	1318.1	53
308.15 K, x1 = 0.25	1275.9	63
308.15 K, x1 = 0.499	1190.9	96
308.15 K, x1 = 0.75	1107.5	127
308.15 K, x1 = 0.898	1058.6	145
308.15 K, x1 = 1	1025.5	–
313.15 K, x1 = 0.126	1313.8	–
313.15 K, x1 = 0.25	1271.8	52
313.15 K, x1 = 0.499	1187.2	73
313.15 K, x1 = 0.75	1104.2	99
313.15 K, x1 = 0.898	1055.5	110
313.15 K, x1 = 1	1022.6	–
318.15 K, x1 = 0.126	1309.6	–
318.15 K, x1 = 0.25	1267.7	–
318.15 K, x1 = 0.499	1183.5	59
318.15 K, x1 = 0.75	1100.9	77
318.15 K, x1 = 0.898	1052.5	83
318.15 K, x1 = 1	1019.6	–
323.15 K, x1 = 0.126	1305.4	–
323.15 K, x1 = 0.25	1263.7	–
323.15 K, x1 = 0.499	1179.9	–
323.15 K, x1 = 0.75	1097.6	62
323.15 K, x1 = 0.898	1049.4	67
323.15 K, x1 = 1	1016.7	–
328.15 K, x1 = 0.126	1301.2	–
328.15 K, x1 = 0.25	1259.6	–
328.15 K, x1 = 0.499	1176.2	–
328.15 K, x1 = 0.75	1094.3	–
328.15 K, x1 = 0.898	1046.3	–
328.15 K, x1 = 1	1013.8	–
333.15 K, x1 = 0.126	1297	–
333.15 K, x1 = 0.25	1255.5	–
333.15 K, x1 = 0.499	1172.6	–
333.15 K, x1 = 0.75	1091.1	–
333.15 K, x1 = 0.898	1043.3	–
333.15 K, x1 = 1	1010.8	–
338.15 K, x1 = 0.126	1292.8	–
338.15 K, x1 = 0.25	1251.5	–
338.15 K, x1 = 0.499	1169	–
338.15 K, x1 = 0.75	1087.8	–
338.15 K, x1 = 0.898	1040.2	–
338.15 K, x1 = 1	1007.9	–
343.15 K, x1 = 0.126	1288.7	–
343.15 K, x1 = 0.25	1247.5	–
343.15 K, x1 = 0.499	1165.3	–
343.15 K, x1 = 0.75	1084.6	–
343.15 K, x1 = 0.898	1037.2	–
343.15 K, x1 = 1	1005	–
348.15 K, x1 = 0.126	1284.5	–
348.15 K, x1 = 0.25	1243.5	–
348.15 K, x1 = 0.499	1161.7	–
348.15 K, x1 = 0.75	1081.3	–
348.15 K, x1 = 0.898	1034.1	–
348.15 K, x1 = 1	1002.1	–
353.15 K, x1 = 0.126	1280.3	–
353.15 K, x1 = 0.25	1239.5	–
353.15 K, x1 = 0.499	1158.1	–
353.15 K, x1 = 0.75	1078.1	–
353.15 K, x1 = 0.898	1031.1	–
353.15 K, x1 = 1	999.2	–
